Publication PMC4596527 (Bioorganic & medicinal chemistry, 2010)
Marks after values point to notes of the source that are not given here.

What was measured:
myocite = details: exposure to hypoxantine and xantine oxidase; cited from earlier work
[1] = system: Langendorff-perfused heart; details: attributed to activation of Akt and ERK1/2 pathways; cited from earlier work
[2] = system: Chinese hamster ovary (CHO) cells; assay: MTT cell viability, protection against H2O2-mediated cytotoxicity in CHO cells; details: for Cytotoxicity CHO (%): 50 μM compound for 2 h, then 1mM H2O2 for 1 h, MTT
reperfused myocardium = details: in vivo I/R injury; cited from earlier work
[3] = Superoxide radical scavenging by EPR spin trapping; details: PBS pH 7.4
[4] = system: human aortic vascular smooth muscle cells (HSMCs); assay: MTT cell viability, protection against H2O2-mediated cytotoxicity in HSMC cells; details: 50 μM compound for 2 h, then 1mM H2O2 for 1 h
[5] = 1-mM compound in presence of 1-mM DEPMPO
[6] = 100-μM compound in presence of 1-mM DEPMPO

Row | Compound | protection of CHO cells against H2O2 compared with verapamil (in words) [2] | Superoxide Scavenging (%) [3, 5] | Cytotoxicity CHO (%) [2] [%] | Cytotoxicity HSMC (%) [4] [%] | further results
1 | COc1ccc(CCN(C)CCCC(C#N)(c2ccc(OC)c(OC)c2)C(C)C)cc1OC (stereo not shown) [Compound 1, verapamil] |  |  |  |  | myocite viability (myocite): preserved; oxidative damage during ischemia and reperfusion [1]: decreased oxidative damage
2 | COc1ccc(CCN(C)CCCC(CNC(=O)C2=CC(C)(C)N(O)C2(C)C)(c2ccc(OC)c(OC)c2)C(C)C)cc1OC.Cl (stereo not shown) [Compound 12B] | good protection |  |  |  | 
3 | COc1ccc(CCN(C)CCCC(CNC(=O)C2=CC(C)(C)N(O)C(C)(C)C2)(c2ccc(OC)c(OC)c2)C(C)C)cc1OC.Cl (stereo not shown) [Compound 16B] | good protection |  |  |  | Akt and Bcl-2 levels in reperfused myocardium (reperfused myocardium): enhanced; nitric oxide generation in reperfused myocardium (reperfused myocardium): increased; superoxide production in reperfused myocardium (reperfused myocardium): markedly attenuated
4 | COc1ccc(CCN(C)CCCC(CNC(=O)C2CC(C)(C)N(O)C(C)(C)C2)(c2ccc(OC)c(OC)c2)C(C)C)cc1OC.Cl (stereo not shown) [Compound 17B] | good protection |  |  |  | 
5 | COc1ccc(CCN(CCCC(C#N)(c2ccc(OC)c(OC)c2)C(C)C)CC2=CC(C)(C)NC2(C)C)cc1OC (stereo not shown) [Compound 23A, 2-(3,4-Dimethoxyphenyl)-5-[[2-(3,4-dimethoxyphenyl)ethyl]-(2,2,5,5-tetramethyl-2,5-dihydro-1H-pyrrol-3-ylmethyl)-amino]-2-isopropyl-pentanenitrile] |  | 70.6 ± 3.3 ^a % | 74.0 ± 3.4 | 64.8 ± 7.1 | 
6 | COc1ccc(CCN(CCCC(C#N)(c2ccc(OC)c(OC)c2)C(C)C)CC2=CC(C)(C)N(O)C2(C)C)cc1OC.Cl (stereo not shown) [Compound 23B, 2-(3,4-Dimethoxyphenyl)-5-[[2-(3,4-dimethoxyphenyl)ethyl]-(1-hydroxy-2,2,5,5-tetramethyl-2,5-dihydro-1H-pyrrol-3-ylmethyl)-amino]-2-isopropyl-pentanenitrile HCl Salt] |  | 100% | 66.7 ± 3.0 | 58.6 ± 4.8 | Superoxide Scavenging (%) [3, 6]: 78.1±2.6%
7 | COc1ccc(CCN(CCCC(C#N)(c2ccc(OC)c(OC)c2)C(C)C)CC2=CC(C)(C)NC(C)(C)C2)cc1OC (stereo not shown) [Compound 24A, 2-(3,4-Dimethoxyphenyl)-5-[[2-(3,4-dimethoxyphenyl)ethyl]-(2,2,6,6-tetramethyl-1,2,3,6-tetrahydropyridin-4-ylmethyl)amino]-2-isopropyl-pentanenitrile] |  | 68.2 ± 7.6 ^a % | 95.3 ± 0.5 | 91.1 ± 0.5 | 
8 | COc1ccc(CCN(CCCC(C#N)(c2ccc(OC)c(OC)c2)C(C)C)CC2=CC(C)(C)N(O)C(C)(C)C2)cc1OC.Cl (stereo not shown) [Compound 24B, 2-(3,4-Dimethoxyphenyl)-5-[[2-(3,4-dimethoxyphenyl)ethyl]-(1-hydroxy-2,2,6,6-tetramethyl-1,2,3,6-tetrahydropyridin-4-ylmethyl)amino]-2-isopropyl-pentanenitrile HCl Salt] |  | 100% | 64.8 ± 5.6 | 57.2 ± 5.4 | Superoxide Scavenging (%) [3, 6]: 82.5±2.7%
9 | [4-Cyano-4-(3,4-dimethoxyphenyl)-5-methylhexyl]-[2-(3,4-dimethoxyphenyl)ethyl]-(1-oxyl-2,2,5,5-tetramethyl-2,5-dihydro-1H-pyrrol-3-ylmethyl)methylammonium Iodide Salt Radical [Compound 25] | good protection | 73.8 ± 3.0 ^a % |  |  | 
10 | [4-Cyano-4-(3,4-dimethoxyphenyl)-5-methylhexyl]-[2-(3,4-dimethoxyphenyl)ethyl]-(1-oxyl-2,2,6,6-tetramethyl-1,2,3,6-tetrahydropyridin-4-ylmethyl)methylammonium Iodide Salt Radical [Compound 26] |  | 48.1 ± 2.7 ^a % |  |  | 
